{"source": "patent US9725449B2", "about": "“Tricyclic compounds as anticancer agents” (BRISTOL-MYERS SQUIBB COMPANY, priority 2015, dated 2017)", "data": [{"target": "BRD4 (Homo sapiens, UniProt O60885)", "test": "Time resolved fluorescence resonance energy transfer (TR-FRET) binding assay, bromodomain BRD4", "conditions": "one of the FRET assays described; read-out: FRET BRD4 IC50", "units": {"IC50": "nM"}, "values": [{"smiles": "CNCCN(C)c1ccc2c3ncc(-c4c(C)nnn4C)cc3n([C@H](c3ccccc3F)C3CCOCC3)c2n1", "note": "[Example 228, 5-(Dimethyl-1H-1,2,3-triazol-5-yl)-8-[(S)-(2-fluorophenyl)(oxan-4-yl)methyl]-N-methyl-N-[2-(methylamino)ethyl]-3,8,10-triazatricyclo[7.4.0.0^2,^7]trideca-1(13),2(7),3,5,9,11-hexaen-11-amine]", "IC50": "< 1"}, {"smiles": "Cc1nnn(C)c1-c1cnc2c3ccc(-c4ccnn4C)nc3n([C@H](c3ccccc3F)C3CCOCC3)c2c1", "note": "[Example 229, 5-(Dimethyl-1H-1,2,3-triazol-5-yl)-8-[(S)-(2-fluorophenyl)(oxan-4-yl)methyl]-11-(1-methyl-1H-pyrazol-5-yl)-3,8,10-triazatricyclo[7.4.0.0^2,^7]trideca-1(13),2(7),3,5,9,11-hexaene]", "IC50": "< 10"}, {"smiles": "Cc1nnn(C)c1-c1cnc2c3ccc(C4=CCN(C)CC4)nc3n([C@H](c3ccccc3F)C3CCOCC3)c2c1", "note": "[Example 230, 5-(Dimethyl-1H-1,2,3-triazol-5-yl)-8-[(S)-(2-fluorophenyl)(oxan-4-yl)methyl]-11-(1-methyl-1,2,3,6-tetrahydropyridin-4-yl)-3,8,10-triazatricyclo[7.4.0.0^2,^7]trideca-1(13),2(7),3,5,9,11-hexaene]", "IC50": "< 10"}, {"smiles": "Cc1nnn(C)c1-c1cnc2c3ccc(N4CCN(C)CC4)nc3n([C@H](c3ccccc3F)C3CCOCC3)c2c1", "note": "[Example 231, 5-(Dimethyl-1H-1,2,3-triazol-5-yl)-8-[(S)-(2-fluorophenyl)(oxan-4-yl)methyl]-11-(4-methylpiperazin-1-yl)-3,8,10-triazatricyclo[7.4.0.0^2,^7]trideca-1(13),2(7),3,5,9,11-hexaene]", "IC50": "< 10"}, {"smiles": "[2H]C([2H])([2H])c1nnn(C)c1-c1cnc2c3ccc(-c4c(C([2H])([2H])[2H])nnn4C)nc3n([C@H](c3ccccc3F)C3CCOCC3)c2c1", "note": "[Example 232, 8-[(S)-(2-Fluorophenyl)(oxan-4-yl)methyl]-5,11-bis[4-(^2H3)methyl-1-methyl-1H-1,2,3-triazol-5-yl]-3,8,10-triazatricyclo[7.4.0.0^2,^7]trideca-1(13),2(7),3,5,9,11-hexaene]", "IC50": "< 10"}, {"smiles": "[2H]C([2H])([2H])c1nnn(C)c1-c1cnc2c3ccc(Cl)nc3n([C@H](c3ccccc3F)C3CCOCC3)c2c1", "note": "[Example 233, 11-Chloro-8-[(S)-(2-fluorophenyl)(oxan-4-yl)methyl]-5-[4-(^2H3)methyl-1-methyl-1H-1,2,3-triazol-5-yl]-3,8,10-triazatricyclo[7.4.0.0^2,^7]trideca-1(13),2(7),3,5,9,11-hexaene]", "IC50": "< 10"}, {"smiles": "[2H]C([2H])([2H])c1nnn(C)c1-c1cnc2c3ccc(N4CCN(C)CC4)nc3n([C@H](c3ccccc3F)C3CCOCC3)c2c1", "note": "[Example 234, 8-[(S)-(2-Fluorophenyl)(oxan-4-yl)methyl]-5-[4-(^2H3)methyl-1-methyl-1H-1,2,3-triazol-5-yl]-11-(4-methylpiperazin-1-yl)-3,8,10-triazatricyclo[7.4.0.0^2,^7]trideca-1(13),2(7),3,5,9,11-hexaene]", "IC50": "< 10"}, {"smiles": "[2H]C([2H])([2H])c1nnn(C)c1-c1cnc2c3ccc(S(C)(=O)=O)nc3n([C@H](c3ccccc3F)C3CCOCC3)c2c1", "note": "[Example 235, 8-[(S)-(2-Fluorophenyl)(oxan-4-yl)methyl]-11-methanesulfonyl-5-[4-(^2H3)methyl-1-methyl-1H-1,2,3-triazol-5-yl]-3,8,10-triazatricyclo[7.4.0.0^2,^7]trideca-1(13),2(7),3,5,9,11-hexaene]", "IC50": "< 10"}, {"smiles": "[2H]C([2H])([2H])c1nnn(C)c1-c1cnc2c3ccc(N(C)CCNC)nc3n([C@H](c3ccccc3F)C3CCOCC3)c2c1", "note": "[Example 236, 8-[(S)-(2-Fluorophenyl)(oxan-4-yl)methyl]-N-methyl-5-[4-(^2H3)methyl-1-methyl-1H-1,2,3-triazol-5-yl]-N-[2-(methylamino)ethyl]-3,8,10-triazatricyclo[7.4.0.0^2,^7]trideca-1(13),2(7),3,5,9,11-hexaen-11-amine]", "IC50": "< 1"}, {"smiles": "[2H]C([2H])([2H])c1nnn(C)c1-c1cnc2c3ccc(N4C[C@@H](C)O[C@@H](C)C4)nc3n([C@H](c3ccccc3F)C3CCOCC3)c2c1", "note": "[Example 237, 11-[(2R,6S)-2,6-Dimethylmorpholin-4-yl]-8-[(S)-(2-fluorophenyl)(oxan-4-yl)methyl]-5-[4-(^2H3)methyl-1-methyl-1H-1,2,3-triazol-5-yl]-3,8,10-triazatricyclo[7.4.0.0^2,^7]trideca-1(13),2(7),3,5,9,11-hexaene]", "IC50": "< 1"}, {"smiles": "[2H]C([2H])([2H])c1nnn(C)c1-c1cnc2c3ccc(N(C)C)nc3n([C@H](c3ccccc3F)C3CCOCC3)c2c1", "note": "[Example 238, 8-[(S)-(2-Fluorophenyl)(oxan-4-yl)methyl]-N,N-dimethyl-5-[4-(^2H3)methyl-1-methyl-1H-1,2,3-triazol-5-yl]-3,8,10-triazatricyclo[7.4.0.0^2,^7]trideca-1(13),2(7),3,5,9,11-hexaen-11-amine]", "IC50": "< 10"}, {"smiles": "[2H]C([2H])([2H])c1nnn(C)c1-c1cnc2c3ccc(NC)nc3n([C@H](c3ccccc3F)C3CCOCC3)c2c1", "note": "[Example 239, 8-[(S)-(2-Fluorophenyl)(oxan-4-yl)methyl]-N-methyl-5-[4-(^2H3)methyl-1-methyl-1H-1,2,3-triazol-5-yl]-3,8,10-triazatricyclo[7.4.0.0^2,^7]trideca-1(13),2(7),3,5,9,11-hexaen-11-amine]", "IC50": "< 10"}, {"smiles": "Cc1nnn(C)c1-c1cnc2c3ccc(NS(C)(=O)=O)nc3n([C@H](c3ccccc3F)C3CCOCC3)c2c1", "note": "[Example 240, N-[5-(Dimethyl-1H-1,2,3-triazol-5-yl)-8-[(S)-(2-fluorophenyl)(oxan-4-yl)methyl]-3,8,10-triazatricyclo[7.4.0.0^2,^7]trideca-1(13),2(7),3,5,9,11-hexaen-11-yl]methanesulfonamide]", "IC50": "< 10"}, {"smiles": "[2H]C([2H])([2H])c1nnn(C)c1-c1cnc2c3ccc(C(C)(C)O)nc3n([C@H](c3ccccc3F)C3CCOCC3)c2c1", "note": "[Example 241, 2-{8-[(S)-(2-Fluorophenyl)(oxan-4-yl)methyl]-5-[4-(^2H3)methyl-1-methyl-1H-1,2,3-triazol-5-yl]-3,8,10-triazatricyclo[7.4.0.0^2,^7]trideca-1(13),2(7),3,5,9,11-hexaen-11-yl}propan-2-ol]", "IC50": "< 10"}, {"smiles": "[2H]C([2H])([2H])c1nnn(C)c1-c1cnc2c3ccc(C(C)(O)C4CC4)nc3n([C@H](c3ccccc3F)C3CCOCC3)c2c1", "note": "(stereo partly drawn) [Example 242, 1-Cyclopropyl-1-{8-[(S)-(2-fluorophenyl)(oxan-4-yl)methyl]-5-[4-(^2H3)methyl-1-methyl-1H-1,2,3-triazol-5-yl]-3,8,10-triazatricyclo[7.4.0.0^2,^7]trideca-1(13),2(7),3,5,9,11-hexaen-11-yl}ethan-1-ol]", "IC50": "< 10"}, {"smiles": "[2H]C([2H])([2H])c1nnn(C)c1-c1cnc2c3ccc(C(C)(O)C4CC4)nc3n([C@H](c3ccccc3F)C3CCOCC3)c2c1", "note": "(stereo partly drawn) [Example 243, 1-Cyclopropyl-1-{8-[(S)-(2-fluorophenyl)(oxan-4-yl)methyl]-5-[4-(^2H3)methyl-1-methyl-1H-1,2,3-triazol-5-yl]-3,8,10-triazatricyclo[7.4.0.0^2,^7]trideca-1(13),2(7),3,5,9,11-hexaen-11-yl}ethan-1-ol]", "IC50": "< 10"}, {"smiles": "[2H]C([2H])([2H])c1nnn(C)c1-c1cnc2c3cnc(N4CCN(C)CC4)cc3n([C@H](c3ccccc3F)C3CCOCC3)c2c1", "note": "[Example 244, 8-[(S)-(2-Fluorophenyl)(oxan-4-yl)methyl]-5-[4-(^2H3)methyl-1-methyl-1H-1,2,3-triazol-5-yl]-11-(4-methylpiperazin-1-yl)-3,8,12-triazatricyclo[7.4.0.0^2,^7]trideca-1(13),2(7),3,5,9,11-hexaene]", "IC50": "< 10"}, {"smiles": "[2H]C([2H])([2H])c1nnn(C)c1-c1cnc2c3cnc(S(C)(=O)=O)cc3n([C@H](c3ccccc3F)C3CCOCC3)c2c1", "note": "[Example 245, 8-[(S)-(2-Fluorophenyl)(oxan-4-yl)methyl]-11-methanesulfonyl-5-[4-(^2H3)methyl-1-methyl-1H-1,2,3-triazol-5-yl]-3,8,12-triazatricyclo[7.4.0.0^2,^7]trideca-1(13),2(7),3,5,9,11-hexaene]", "IC50": "< 10"}, {"smiles": "[2H]C([2H])([2H])c1nnn(C)c1-c1cnc2c3ccc(Cl)nc3n(C(c3ncccc3F)C3CCOCC3)c2c1", "note": "(stereo not shown) [Example 246, 11-Chloro-8-[(3-fluoropyridin-2-yl)(oxan-4-yl)methyl]-5-[4-(^2H3)methyl-1-methyl-1H-1,2,3-triazol-5-yl]-3,8,10-triazatricyclo[7.4.0.0^2,^7]trideca-1(13),2(7),3,5,9,11-hexaene]", "IC50": "< 10"}, {"smiles": "[2H]C([2H])([2H])c1nnn(C)c1-c1cnc2c3ccc(-c4c(C([2H])([2H])[2H])nnn4C)nc3n(C(c3ncccc3F)C3CCOCC3)c2c1", "note": "(stereo not shown) [Example 247, 8-[(3-Fluoropyridin-2-yl)(oxan-4-yl)methyl]-5,11-bis[4-(^2H3)methyl-1-methyl-1H-1,2,3-triazol-5-yl]-3,8,10-triazatricyclo[7.4.0.0^2,^7]trideca-1(13),2(7),3,5,9,11-hexaene]", "IC50": "< 1"}, {"smiles": "[2H]C([2H])([2H])c1nnn(C)c1-c1cnc2c3ccc(-c4c(C([2H])([2H])[2H])nnn4C)nc3n(C(c3ncccc3F)C3CCOCC3)c2c1", "note": "(stereo not shown) [Example 248, 8-[(3-Fluoropyridin-2-yl)(oxan-4-yl)methyl]-5,11-bis[4-(^2H3)methyl-1-methyl-1H-1,2,3-triazol-5-yl]-3,8,10-triazatricyclo[7.4.0.0^2,^7]trideca-1(13),2(7),3,5,9,11-hexaene]", "IC50": "< 10"}, {"smiles": "[2H]C([2H])([2H])c1nnn(C)c1-c1cnc2c3ccc(N4CCN(C([2H])([2H])[2H])CC4)nc3n([C@H](c3ccccc3)C3CCOCC3)c2c1", "note": "[Example 249, 5-[4-(^2H3)Methyl-1-methyl-1H-1,2,3-triazol-5-yl]-11-[4-(^2H3)methylpiperazin-1-yl]-8-[(S)-oxan-4-yl(phenyl)methyl]-3,8,10-triazatricyclo[7.4.0.0^2,^7]trideca-1(13),2(7),3,5,9,11-hexaene]", "IC50": "< 10"}]}]}
